One assay concerns gastric secretion. In words: Gastric secretion inhibitory activity of intermediate compounds (test not specified). An excerpt: Thus, such intermediate compounds are deemed to constitute part of this invention.
Assay [1] relates to histamine evoked gastric secretion. In words: Inhibition of histamine evoked gastric secretion in dogs with a chronic gastric fistula. In kind it is in vivo, female beagle dogs. To be noted: Canis lupus familiaris, iv, 0.5 h, read-out: IV ED50 (mg/kg) Total acid output. As for the experimental part:
[…] Studies are performed in female beagle dogs with a chronic gastric fistula. The test compounds are administered i.v. at 0 min. Gastric secretion is stimulated by administration of a maximal secretory dose of histamine dihydrochloride ([…], base, s.c.) at 0 min. Gastric output is collected by gravity drainage for three 30 min periods (0-30, 30-60 and 60-90 min). Output volume (ml) is measured and an aliquot is titrated to pH 7 to determine acid concentration (titratable acid mEq/L); total acid output (mEq) is calculated as the product of volume and acid concentration. […]. Percent.inhibition of volume, acid concentration and total acid output is calculated relative to a placebo trial in the same animals; ED50 values are determined by linear regression analysis.

`CCOC1=NS(=O)(=O)N=C1NCCSCc1ccc(CN(C)C)o1` [3-N-[2-[(5-dimethylaminomethyl-2-furanyl)methylthio]ethyl]amino-4-ethoxy-1,2,5-thiadiazde-1,1-dioxide]: in the assay with gastric secretion, the “gastric secretion inhibitory activity” value is “substantial gastric secretion inhibitory activity”. Turning to `CNC(=NCCSCc1[nH]cnc1C)NC#N` [D, N-Cyano-N'-methyl-N''-[2-((4-methyl-5-imidazolyl)methylthio)ethyl]guanidine], the ED50 in assay [1] came to 1.8 mg/kg. On to `CCOc1n[s+]([O-])nc1NCCSCc1ccc(CN(C)C)o1` (stereo not shown) [3-N-[2-[(5-dimethylaminomethyl-2-furanyl)methylthio]ethyl]amino-4-ethoxy-1,2,5-thiadiazole-1-oxide], for which, in the assay on gastric secretion, the “gastric secretion inhibitory activity” value is reported as “substantial gastric secretion inhibitory activity”. Regarding `CN(C)Cc1ccc(CSCCNc2n[nH]c(N)n2)o1` [C, 3-N-[2-[(5-Dimethylaminomethyl-2-furanyl)methylthio]ethyl]amino-5-amino-1,2,4-triazole], the ED50 in assay [1] is 1.1 mg/kg.

(Values after patent EP0040696B1, “Aminothiadiazoles as gastric secretion inhibitors” (Merck & Co., Inc., priority 1980, dated 1981).)
